Like-named read-outs stand apart in the source and are kept apart here.
What was measured:
[1] = tested on: HepG2 cells; test: cells; settings: Homo sapiens; for IC50: HepG2, read-out: MMP assays IC50 (µM) HepG2; for Emax: HepG2, read-out: MMP assays efficacy (%) HepG2
[2] = tested on: rat primary hepatocytes; test: MMP assay in rat primary hepatocytes; settings: for IC50: Rattus norvegicus, Hepatocyte, read-out: MMP assays IC50 (µM) Rat Hepatocytes; for MMP assays efficacy (%) Rat Hepatocytes / MMP assays IC50 (µM) Rat Hepatocytes: mean ± SD of three experiments
[3] = tested on: HepG2 cells; settings: cited from earlier work
[4] = read-out: MMP assays IC50 (µM) qHTS-HepG2
[5] = read-out: MMP assays IC50 (µM), qHTS-HepG2

Row | Structure (SMILES) | IC50 [1] | Emax [1] | IC50 [2] | MMP assays efficacy (%) Rat Hepatocytes [2] | MMP assays efficacy (%) qHTS-HepG2 [3] | IC50 [3, 4] | MMP assays IC50 (µM) Rat Hepatocytes [2] | IC50 [3, 5]
1 | CC(C)(c1ccc(O)cc1)c1ccc(O)cc1 [Bisphenol A] | 15.8 µM | 111% | 37.6 ± 3.06 µM | -59±20% | -122±14% | 14 ± 6.29 µM | – | –
2 | CCCOC(=O)c1cc(O)c(O)c(O)c1 [Propyl gallate] | 35.5 µM | 97% | – | inactive | -88±15% | – | inactive | 42.3 ± 3.93 µM
3 | Oc1ccc(/N=N/c2ccccc2)cc1 [p-Phenylazophenol] | 10 µM | 107% | – | inactive | -96±7% | – | inactive | 4.06 ± 1.23 µM
4 | Oc1cccc(Nc2ccccc2)c1 [Compound 3-Hydroxy-N-phenylaniline] | 35.5 µM | 110% | – | inactive | -110±13% | 28.5 ± 6.04 µM | inactive | –
5 | CCC(C)(C)c1ccc(CC(C)CN2C[C@@H](C)O[C@@H](C)C2)cc1 (stereo partly shown) [Amorolfine] | 17.3 µM | 82% | – | inactive | -63±11% | 21.6 ± 3.47 µM | inactive | –
6 | CC(C)(C)c1ccc(O)c(O)c1 [Compound 4-tert-Butylcatechol] | 31.6 µM | 90% | – | inactive | -103±20% | 34.3 ± 15 µM | inactive | –
7 | Cc1cc(O)c(C(C)(C)C)cc1Sc1cc(C(C)(C)C)c(O)cc1C [4,4'-Thiobis(6-tert-butyl-m-cresol)] | 3.16 µM | 115% | 24.8 ± 11.8 µM | -78±17% | -104±19% | 1.86 ± 1.18 µM | – | –
8 | CC(C)C(=O)OCC(=O)[C@@]12O[C@H](C3CCCCC3)O[C@@H]1C[C@H]1[C@@H]3CCC4=CC(=O)C=C[C@]4(C)[C@H]3[C@@H](O)C[C@@]12C [Ciclesonide] | 15.5 µM | 103% | – | inactive | – | 7.91 ± 1.38 µM | inactive | –
9 | CCC(CC)(CC(=O)Nc1cccc(/C=C/c2nc(C3CCC3)cs2)c1)C(=O)O [Cinalukast] | 17.3 µM | 96% | 13.5 ± 5.36 µM | -67±19% | -92±29% | 28.8 ± 1.17 µM | – | –
10 | Cc1ccc2c(c1)C(=O)c1ccccc1C2=O [Compound 2-Methylanthraquinone] | 11.2 µM | 51% | 5.97 ± 0.49 µM | -36±2% | -77±13% | 6.33 ± 1.15 µM | – | –
11 | O=C1c2ccccc2C(=O)N1SC(Cl)(Cl)Cl [Folpet] | 14.1 µM | 100% | 33.7 ± 20.2 µM | – | -107±6% | – | – | 8.25 ± 0.54 µM
12 | ON=C1C=CC(=NO)C=C1 [p-Benzoquinone dioxime] | 25.1 µM | 58% | – | inactive | -71±6% | – | inactive | 43.3 ± 14.9 µM
13 | C=C1CC[C@H](O)C/C1=C/C=C1\CCC[C@]2(C)[C@@H]([C@H](C)CCCC(C)(C)O)CC[C@@H]12 [Calcifediol] | 12.3 µM | 115% | 14.2 ± 9.57 µM | -66±31% | -109±10% | 5.82 ± 0.47 µM | – | –
14 | C(=C(c1ccccc1)c1ccccc1)c1ccccc1 [Triphenylethylene] | 31.6 µM | 54% | 15.2 ± 11.5 µM | -74±30% | -88±31% | – | – | 35.7 ± 14.8 µM
15 | CCc1oc2ccccc2c1C(=O)c1cc(I)c(O)c(I)c1 [Benziodarone] | 4.35 µM | 97% | 1.76 ± 0.68 µM | -95±10% | -106±2% | 2.98 ± 0.63 µM | – | –
16 | CCCCC(CC)CN1C(=O)C2C3C=CC(C3)C2C1=O (stereo not shown) [MGK-264] | 28.2 µM | 84% | 17.8 ± 25.1 µM | -55±25% | -65±7% | – | – | 15.4 ± 10.5 µM

— paper PMC6112376, “Comprehensive Analyses and Prioritization of Tox21 10K Chemicals Affecting Mitochondrial Function by in-Depth Mechanistic Studies” (Environmental Health Perspectives, 2018)
